# Data from patent publication US10071975B2, “Macrocyclic amidinourea derivatives, methods of preparation and uses thereof as chitinase inhibitors” (CYGNET BIOSCIENCES B.V., priority 2013, dated 2018).
# Columns and labels:
# [1] = biological target: chitinase enzyme extracted from Trichoderma viride; assay: Chitinase inhibition assay (NP-GlcNAc substrate); assay type: biochemical
# Procedure: Chitinase inhibition assays were conducted against an example of the GH18 family of chitinases, i.e the chitinase enzyme extracted from Trichoderma viride. This enzyme has an high degree of identity compared to chitinase 4 of Candida albicans, and is commercially available from Sigma-Aldrich (catalogue ID: C8241).
# The substrate used was the NP-GlcNAc (Sigma-Aldrich, catalogue ID: N9376) dissolved in MES 50 mM at pH6.0; the final concentration was 250 μM. The enzyme was resuspended at 0.11 mg/ml in MES 50 mM at pH 6.0, with a final concentration for the assay of 73 nM diluting with MES 50 mM and BSA 20 μg/ml at pH 6.0. A stock solution of the inhibitors was prepared at 50 mM in DMSO 100%.
# The mixture with the inhibitor at various concentrations and the enzyme was prepared directly into the reading plate and left to incubate at room temperature for 20 minutes or three hours. At the end of the incubation times, the substrate was added and the reading was conducted by recording the values up to a maximum time of 10 minutes. The substrate concentration was measured by reading UV absorption at 300 nm (εM^300: 11100), while, the product of hydrolysis were measured at 400 nm (ΔεM^400: 2120). Both IC50 and Ki can be calculated.
# C. albicans = assay: Antimicrobial susceptibility testing (microdilution MIC90), C. albicans strains; assay type: cell-based; conditions: Candida albicans; C. albicans (22 strains tested); 24 h, visually and spectrophotometrically
# Procedure: (§1) Sterile plastic microtitration plates containing flat-bottomed wells were used. The plates contained serial dilution of the antifungal agents with a volume of assay medium of 100 μL/well. Two drug-free medium wells were used as sterility and growth controls. The trays were inoculated with 100 μL/well of the final inoculum, with the exception of sterility control wells. […] The microtitration plates were incubated at 37° C. for 24 h. The minimal inhibitory concentrations (MICs) were determined at 24 h both visually and spectrophotometrically measuring the turbidity at 595 nm with a Varian model 1475 spectrophotometer. Results of biological tests are shown in Table 2, biological data are reported as MIC90 that is the minimum concentration required to inhibit the growth of at least the 90% of the strains tested for each species.
# C. guilliermondii = assay: Antimicrobial susceptibility testing (microdilution MIC90), C. guilliermondii strains; assay type: cell-based, Candida guilliermondii; conditions: Meyerozyma guilliermondii; C. guilliermondii (10 strains tested); 24 h
# Procedure: as §1
# C. krusei = assay: Antimicrobial susceptibility testing (microdilution MIC90), C. krusei strains; assay type: cell-based, Candida krusei; conditions: Pichia kudriavzevii; C. krusei (13 strains tested); 24 h; read-out: MIC90
# Procedure: as §1
# C. parapsilosis = assay: Antimicrobial susceptibility testing (microdilution MIC90), C. parapsilosis strains; assay type: cell-based, Candida parapsilosis; conditions: Lodderomyces parapsilosis; C. parapsilosis (24 strains tested); 24 h
# Procedure: as §1
# C. tropicalis = assay: Antimicrobial susceptibility testing (microdilution MIC90), C. tropicalis strains; assay type: cell-based; conditions: Candida tropicalis; C. tropicalis (11 strains tested); 24 h
# Procedure: as §1
# C. kefyr = assay: Antimicrobial susceptibility testing (microdilution MIC90), C. kefyr strains; assay type: cell-based, Candida kefyr; conditions: Kluyveromyces marxianus; C. kefyr (10 strains tested); 24 h
# Procedure: as §1
# C. glabrata = assay: Antimicrobial susceptibility testing (microdilution MIC90), C. glabrata strains; assay type: cell-based, Candida glabrata; conditions: Nakaseomyces glabratus; C. glabrata (26 strains tested); 24 h
# Procedure: as §1
# [2] = system: C. albicans fluconazole resistant strains; assay: microbe, parasite or virus in culture; assay type: cell-based; conditions: Candida albicans, 24 h
# [3] = system: C. glabrata fluconazole resistant strains; assay: microbe, parasite or virus in culture; assay type: cell-based, Candida glabrata; conditions: Nakaseomyces glabratus, 24 h
# [4] = Enz.-inhib. incubation time 20 min
# [5] = Enz.-inhib. incubation time 3 h
# [6] = strain DSY284, ERG11 Mutation, mean of three measurements
# [7] = strain DSY289, ERG11 Mutation (2)
# [8] = strain DSY291, ERG11 Mutation (2)
# [9] = strain DSY292, ERG11 Mutation (3)
# [10] = strain DSY751, ↑MDR1, ERG11 Mutation
Structure (SMILES),"IC50 [1, 4] [µM]","Ki [1, 4] [µM]","IC50 [1, 5] [µM]","Ki [1, 5] [µM]",MIC90 (C. albicans) [µg/mL],MIC90 (C. guilliermondii) [µg/mL],MIC90 (C. krusei) [µg/mL],MIC90 (C. parapsilosis) [µg/mL],MIC90 (C. tropicalis) [µg/mL],MIC90 (C. kefyr) [µg/mL],MIC90 (C. glabrata) [µg/mL],also measured
"N=C(NCCCCCCCCN1CCCCCCCCNC(=N)NC1=O)NCC1CC1 [Compound 34, 1-(cyclopropylmethyl)-3-[8-(4-imino-2-oxo-1,3,5-triazacyclotridec-1-yl)octyl]guanidine]",252,81.4,130,42,,,,,,,,
"C/C=C/CNC(=N)NCCCCCCCCN1CCCCCCCCNC(=N)NC1=O [Compound 35, 1-[(E)-but-2-enyl]-3-[8-(4-imino-2-oxo-1,3,5-triazacyclotridec-1-yl)octyl]guanidine]",185,59.6,157,50.8,,,,,,,,
"C/C=C/CNC(=N)NCCCCCCN1CCCCCCCCNC(=N)NC1=O [Compound 36, 1-[(E)-but-2-enyl]-3-[6-(4-imino-2-oxo-1,3,5-triazacyclotridec-1-yl)hexyl]guanidine]",,,111,35.8,,,,,,,,
"C=C(C)CNC(=N)NCCCCCCN1CCCCCCCCNC(=N)NC1=O [Compound 37, 1-[6-(4-imino-2-oxo-1,3,5-triazacyclotridec-1-yl)hexyl]-3-(2-methylprop-2-enyl)guanidine]",276,81.4,108,34.8,,,,,,,,
"CCNC(=N)NCCCCCCN1CCCCCCCCNC(=N)NC1=O [Compound 38, 1-ethyl-3-[6-(4-imino-2-oxo-1,3,5-triazacyclotridec-1-yl)hexyl]guanidine]",508,164,140,45.3,,,,,,,,
"C#CCNC(=N)NCCCCCCN1CCCCCCCCNC(=N)NC1=O [Compound 39, 1-[6-(4-imino-2-oxo-1,3,5-triazacyclotridec-1-yl)hexyl]-3-prop-2-ynylguanidine]",170,55,97,31.3,,,,,,,,
"C/C=C/CNC(=N)NCCCCCCCCN1CCCCOc2ccccc2CNC(=N)NC1=O [Example 16, 1-[(E)-but-2-enyl]-3-[8-(4-imino-6-oxo-12-oxa-3,5,7-triazabicyclo[11.4.0]heptadeca-1(13),14,16-trien-7-yl)octyl]guanidine]",,,,,16,16,32,8,8,4,64,"MIC [2, 6]: 16 µg/mL; MIC [2, 7]: 8 µg/mL; MIC [2, 8]: 8 µg/mL; MIC [2, 9]: 16 µg/mL; MIC ([2]; strain DSY296, ERG11 Mutation): 16 µg/mL; MIC ([2]; strain DSY348, ERG11 Mutation): 8 µg/mL; MIC ([2]; strain DSY732, ↑CDR1-CDR2): 8 µg/mL; MIC ([2]; strain DSY735, ↑CDR1-CDR2): 8 µg/mL; MIC ([2]; strain DSY750, ↑MDR1): 16 µg/mL; MIC [2, 10]: 16 µg/mL; MIC ([2]; strain DSY775, ERG11 Mutation): 16 µg/mL; MIC ([2]; strain DSY2323, ↑CDR2-MDR1): 8 µg/mL; MIC ([3]; strain DSY530, ↑CDR1): 64 µg/mL; MIC ([3]; strain DSY754, ↑CDR1): 64 µg/mL; MIC ([3]; strain DSY756, ↑CDR1-CDR2-SNQ2): 64 µg/mL; MIC ([3]; strain DSY2254, ↑CDR1-CDR2): 64 µg/mL; MIC ([3]; strain DSY2271, ↑CDR2): 64 µg/mL"
"C/C=C/CNC(=N)NCCCCCCCCN1CCCCCCOC(=O)CCNC(=N)NC1=O [Example 20, 1-[(E)-but-2-enyl]-3-[8-(6-imino-2,8-dioxo-1-oxa-5,7,9-triazacyclopentadec-9-yl)octyl]guanidine]",,,,,16,8,32,8,16,16,32,
C/C=C/CNC(=N)NCCCCCCCCN1CCCCCCOc2ccccc2C(c2cn(-c3ccccc3)nn2)NC(=N)NC1=O (stereo not drawn) [Example 21],,,,,32,32,128,32,64,64,64,
"C/C=C/CNC(=N)NCCCCCCCCN1CCCc2ccccc2COc2ccccc2CNC(=N)NC1=O [Example 22, 1-[(2E)-but-2-en-1-yl]-3-(8-{16-imino-14-oxo-2-oxa-13,15,17-triazatricyclo[17.4.0.0^4,9]tricosa-1(19),4(9),5,7,20,22-hexaen-13-yl}octyl)guanidine]",,,,,64,64,256,64,128,128,128,
"C/C=C/CNC(=N)NCCCCCCCCN1CCCc2cccc(c2)COc2ccccc2CNC(=N)NC1=O [Example 23, 1-[(2E)-but-2-en-1-yl]-3-(8-{12-imino-14-oxo-3-oxa-11,13,15-triazatricyclo[17.3.1.0^4,9]tricosa-1(23),4(9),5,7,19,21-hexaen-15-yl}octyl)guanidine]",,,,,256,256,256,256,256,256,128,
"C[C@@H](c1ncncc1F)[C@](O)(Cn1cncn1)c1ccc(F)cc1F [VOR, Voriconazole, reference compound]",,,,,,,,,,,,"MIC [2, 6]: 4 µg/mL; MIC [2, 7]: 8 µg/mL; MIC [2, 8]: 0.03 µg/mL; MIC [2, 9]: 2 µg/mL; MIC ([2]; strain DSY296, ERG11 Mutation): 8 µg/mL; MIC ([2]; strain DSY348, ERG11 Mutation): 0.25 µg/mL; MIC ([2]; strain DSY732, ↑CDR1-CDR2): 0.25 µg/mL; MIC ([2]; strain DSY735, ↑CDR1-CDR2): 2 µg/mL; MIC ([2]; strain DSY750, ↑MDR1): 0.016 µg/mL; MIC [2, 10]: 0.25 µg/mL; MIC ([2]; strain DSY775, ERG11 Mutation): 8 µg/mL; MIC ([2]; strain DSY2323, ↑CDR2-MDR1): 0.25 µg/mL; MIC ([3]; strain DSY530, ↑CDR1): 0.5 µg/mL; MIC ([3]; strain DSY754, ↑CDR1): 2 µg/mL; MIC ([3]; strain DSY756, ↑CDR1-CDR2-SNQ2): 4 µg/mL; MIC ([3]; strain DSY2254, ↑CDR1-CDR2): 2 µg/mL"
